Experiment: xn = mol fraction of the nth substance listed
Conditions: Fluid (supercritical or subcritical phases), vibrating tube

CCCCCO [pentan-1-ol] + O=C=O
Conditions	mass density [kg/m3]
352.79 K, 11040 kPa, x2 = 0.4651	785.81
352.79 K, 12030 kPa, x2 = 0.4651	787.74
352.79 K, 13014 kPa, x2 = 0.4651	789.67
352.79 K, 13996 kPa, x2 = 0.4651	791.51
352.79 K, 15009 kPa, x2 = 0.4651	793.37
352.79 K, 16021 kPa, x2 = 0.4651	795.22
352.79 K, 17023 kPa, x2 = 0.4651	797.01
352.79 K, 18036 kPa, x2 = 0.4651	798.78
352.79 K, 19033 kPa, x2 = 0.4651	800.49
352.79 K, 20034 kPa, x2 = 0.4651	802.15
352.79 K, 21019 kPa, x2 = 0.4651	803.78
352.79 K, 22005 kPa, x2 = 0.4651	805.38
352.79 K, 23048 kPa, x2 = 0.4651	807.02
352.79 K, 24005 kPa, x2 = 0.4651	808.54
352.8 K, 9062 kPa, x2 = 0.3624	787.17
352.8 K, 10017 kPa, x2 = 0.3624	788.44
352.8 K, 10962 kPa, x2 = 0.3624	789.67
352.8 K, 12014 kPa, x2 = 0.3624	790.98
352.8 K, 13057 kPa, x2 = 0.3624	792.31
352.8 K, 13992 kPa, x2 = 0.3624	793.46
352.8 K, 14992 kPa, x2 = 0.3624	794.66
352.8 K, 16050 kPa, x2 = 0.3624	795.91
352.8 K, 16062 kPa, x2 = 0.8573	704.48
352.8 K, 17018 kPa, x2 = 0.3624	797.04
352.8 K, 17045 kPa, x2 = 0.8573	717.71
352.8 K, 17979 kPa, x2 = 0.3624	798.17
352.8 K, 18036 kPa, x2 = 0.8573	728.91
352.8 K, 19024 kPa, x2 = 0.8573	738.63
352.8 K, 19050 kPa, x2 = 0.3624	799.37
352.8 K, 20029 kPa, x2 = 0.3624	800.46
352.8 K, 20047 kPa, x2 = 0.8573	747.71
352.8 K, 21012 kPa, x2 = 0.8573	755.39
352.8 K, 21035 kPa, x2 = 0.3624	801.59
352.8 K, 21985 kPa, x2 = 0.3624	802.63
352.8 K, 22013 kPa, x2 = 0.8573	762.78
352.8 K, 23021 kPa, x2 = 0.3624	803.75
352.8 K, 23034 kPa, x2 = 0.8573	769.78
352.8 K, 24022 kPa, x2 = 0.3624	804.82
352.8 K, 24038 kPa, x2 = 0.8573	776.16
352.8 K, 25026 kPa, x2 = 0.3624	805.9
352.8 K, 25052 kPa, x2 = 0.8573	782.21
352.81 K, 3095 kPa, x2 = 0.0816	772.79
352.81 K, 4022 kPa, x2 = 0.0816	773.74
352.81 K, 5003 kPa, x2 = 0.0816	774.75
352.81 K, 5979 kPa, x2 = 0.0816	775.73
352.81 K, 7007 kPa, x2 = 0.0816	776.72
352.81 K, 7981 kPa, x2 = 0.0816	777.7
352.81 K, 9053 kPa, x2 = 0.0816	778.72
352.81 K, 10025 kPa, x2 = 0.0816	779.66
352.81 K, 11031 kPa, x2 = 0.0816	780.6
352.81 K, 11999 kPa, x2 = 0.0816	781.51
352.81 K, 13023 kPa, x2 = 0.0816	782.45
352.81 K, 14012 kPa, x2 = 0.0816	783.34
352.81 K, 15005 kPa, x2 = 0.7274	763.67
352.81 K, 15006 kPa, x2 = 0.0816	784.24
352.81 K, 15032 kPa, x2 = 0.9216	609.93
352.81 K, 15993 kPa, x2 = 0.0816	785.1
352.81 K, 16001 kPa, x2 = 0.9216	637.91
352.81 K, 16021 kPa, x2 = 0.7274	769.33
352.81 K, 17044 kPa, x2 = 0.9216	660.91
352.81 K, 17045 kPa, x2 = 0.7274	774.53
352.81 K, 17064 kPa, x2 = 0.0816	786
352.81 K, 18013 kPa, x2 = 0.0816	786.86
352.81 K, 18017 kPa, x2 = 0.9216	678.45
352.81 K, 18023 kPa, x2 = 0.7274	779.16
352.81 K, 18992 kPa, x2 = 0.0816	787.69
352.81 K, 19030 kPa, x2 = 0.9216	693.91
352.81 K, 19050 kPa, x2 = 0.7274	783.67
352.81 K, 19999 kPa, x2 = 0.7274	787.59
352.81 K, 20017 kPa, x2 = 0.9216	707.27
352.81 K, 20032 kPa, x2 = 0.0816	788.58
352.81 K, 20998 kPa, x2 = 0.0816	789.4
352.81 K, 21041 kPa, x2 = 0.9216	719.46
352.81 K, 21063 kPa, x2 = 0.7274	791.77
352.81 K, 22012 kPa, x2 = 0.0816	790.22
352.81 K, 22020 kPa, x2 = 0.7274	795.33
352.81 K, 22043 kPa, x2 = 0.9216	730.24
352.81 K, 23032 kPa, x2 = 0.9216	740.03
352.81 K, 23038 kPa, x2 = 0.7274	798.99
352.81 K, 23043 kPa, x2 = 0.0816	791.09
352.81 K, 23982 kPa, x2 = 0.7274	802.22
352.81 K, 24064 kPa, x2 = 0.0816	791.93
352.81 K, 25028 kPa, x2 = 0.0816	792.72
352.81 K, 25068 kPa, x2 = 0.7274	805.8
352.86 K, 7013 kPa, x2 = 0.1347	777.29
352.86 K, 8003 kPa, x2 = 0.1347	778.24
352.86 K, 9042 kPa, x2 = 0.1347	779.29
352.86 K, 9997 kPa, x2 = 0.1347	780.21
352.86 K, 11043 kPa, x2 = 0.1347	781.23
352.86 K, 12025 kPa, x2 = 0.1347	782.2
352.86 K, 13003 kPa, x2 = 0.1347	783.16
352.86 K, 14006 kPa, x2 = 0.1347	784.13
352.86 K, 15015 kPa, x2 = 0.1347	785.07
352.86 K, 16005 kPa, x2 = 0.1347	786.01
352.86 K, 17031 kPa, x2 = 0.1347	786.94
352.86 K, 18022 kPa, x2 = 0.1347	787.86
352.86 K, 19009 kPa, x2 = 0.1347	788.74
352.86 K, 20022 kPa, x2 = 0.1347	789.63
352.86 K, 21024 kPa, x2 = 0.1347	790.52
352.86 K, 21995 kPa, x2 = 0.1347	791.37
352.86 K, 23030 kPa, x2 = 0.1347	792.28
352.86 K, 24029 kPa, x2 = 0.1347	793.15
352.86 K, 25004 kPa, x2 = 0.1347	793.98
352.88 K, 14062 kPa, x2 = 0.6054	787.97
352.88 K, 15034 kPa, x2 = 0.6054	790.53
352.88 K, 16029 kPa, x2 = 0.6054	793.07
352.88 K, 17048 kPa, x2 = 0.6054	795.6
352.88 K, 18046 kPa, x2 = 0.6054	798.05
352.88 K, 19026 kPa, x2 = 0.6054	800.32
352.88 K, 20030 kPa, x2 = 0.6054	802.6
352.88 K, 21058 kPa, x2 = 0.6054	804.93
352.88 K, 22056 kPa, x2 = 0.6054	807.03
352.88 K, 23049 kPa, x2 = 0.6054	809.11
352.88 K, 24065 kPa, x2 = 0.6054	811.21
352.88 K, 25092 kPa, x2 = 0.6054	813.29
362.58 K, 20013 kPa, x2 = 0.9757	578.28
362.58 K, 21042 kPa, x2 = 0.9757	600.7
362.58 K, 22020 kPa, x2 = 0.9757	619.68
362.58 K, 23010 kPa, x2 = 0.9757	637.03
362.58 K, 24034 kPa, x2 = 0.9757	653.33
362.58 K, 25047 kPa, x2 = 0.9757	667.94
362.59 K, 517 kPa, x2 = 0	759.7
362.59 K, 1023 kPa, x2 = 0	760.25
362.59 K, 2005 kPa, x2 = 0	761.26

— the NIST ThermoML archive (doi:10.1016/j.jct.2007.07.005)
